This note sets out measurements from patent publication US11117900B2 (Vertex Pharmaceuticals Incorporated, priority 2012, dated 2021).

The test deals with HCT116 colorectal cancer cells. Kind of test: Cisplatin sensitization assay (96 h MTS cell viability).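 Further: compound concentration needed to lower the IC50 of Cisplatin alone by a set fold.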 The settings on record: Cisplatin sensitization value. It is filed as cell-based. Here is the method:
Compounds can be screened for their ability to sensitize HCT116 colorectal cancer cells to Cisplatin using a 96 h cell viability (MTS) assay. […] Compounds and Cisplatin are then both added simultaneously to the cell media in 2-fold serial dilutions from a top final concentration of 10 μM as a full matrix of concentrations in a final cell volume of 200 μl, and the cells are then incubated at 37° C. in 5% CO2. After 96 h, 40 μl of MTS reagent (Promega G358a) is added to each well and the cells are incubated for 1 h at 37° C. in 5% CO2.
Compounds with a Cisplatin sensitization value of <0.02 μM are marked with “+++.” Compounds with a Cisplatin sensitization value >0.02 μM but <0.2 μM are marked with “++.” Compounds with a Cisplatin sensitization value >0.2 μM but <5 μM are marked with “+.”
For the molecule `CN(C)C1CN(C(=O)C2CCN(c3c(F)cncc3NC(=O)c3c(N)nn4cc(F)cnc34)CC2)C1` [I-G-22, 2-amino-N-(4-(4-(3-(dimethylamino)azetidine-1-carbonyl)piperidin-1-yl)-5-fluoropyridin-3-yl)-6-fluoropyrazolo[1,5-a]pyrimidine-3-carboxamide], the “Cisplatin Sensitization Assay” value is recorded as “+++ (Compounds with a Cisplatin sensitization value of <0.02 μM are marked with “+++.”)”.

For the molecule `CN1CCN(CC2CCN(c3c(F)cncc3NC(=O)c3c(N)nn4cc(F)cnc34)CC2)CC1=O` [I-N-171, 2-amino-6-fluoro-N-(5-fluoro-4-(4-((4-methyl-3-oxopiperazin-1-yl)methyl)piperidin-1-yl)pyridin-3-yl)pyrazolo[1,5-a]pyrimidine-3-carboxamide], the “Cisplatin Sensitization Assay” value was “+++ (Compounds with a Cisplatin sensitization value of <0.02 μM are marked with “+++.”)”.

Turning to `COC1CN(C(=O)C2CCN(c3c(F)cncc3NC(=O)c3c(N)nn4cc(F)cnc34)CC2)C1` [I-G-21, 2-amino-6-fluoro-N-(5-fluoro-4-(4-(3-methoxyazetidine-1-carbonyl)piperidin-1-yl)pyridin-3-yl)pyrazolo[1,5-a]pyrimidine-3-carboxamide], the “Cisplatin Sensitization Assay” value is listed as “+++ (Compounds with a Cisplatin sensitization value of <0.02 μM are marked with “+++.”)”.

For `Nc1nn2cc(Cl)cnc2c1C(=O)Nc1cnccc1-n1ccnc1` [I-N-29, N-(4-(1H-imidazol-1-yl)pyridin-3-yl)-2-amino-6-chloropyrazolo[1,5-a]pyrimidine-3-carboxamide], the “Cisplatin Sensitization Assay” value was “++ (Compounds with a Cisplatin sensitization value >0.02 μM but <0.2 μM are marked with “++.”)”.

`CN1CCN(C(=O)c2ccc(-c3c(F)cncc3NC(=O)c3c(N)nn4cc(F)cnc34)cc2)CC1` [I-C-43, 2-amino-6-fluoro-N-(5-fluoro-4-(4-(4-methylpiperazine-1-carbonyl)phenyl)pyridin-3-yl)pyrazolo[1,5-a]pyrimidine-3-carboxamide]: the “Cisplatin Sensitization Assay” value is recorded as “+++ (Compounds with a Cisplatin sensitization value of <0.02 μM are marked with “+++.”)”.

As for `Nc1nn2cc(F)cnc2c1C(=O)Nc1cnccc1N1CCN(C2CC2)CC1` [I-N-33, 2-amino-N-(4-(4-cyclopropylpiperazin-1-yl)pyridin-3-yl)-6-fluoropyrazolo[1,5-a]pyrimidine-3-carboxamide], the “Cisplatin Sensitization Assay” value was “+ (Compounds with a Cisplatin sensitization value >0.2 μM but <5 μM are marked with “+.”)”.

As for `Nc1nn2cc(F)cnc2c1C(=O)Nc1cncc(F)c1N1CCC(C(=O)N2CC3(COC3)C2)CC1` [I-G-72, N-(4-(4-(2-oxa-6-azaspiro[3.3]heptane-6-carbonyl)piperidin-1-yl)-5-fluoropyridin-3-yl)-2-amino-6-fluoropyrazolo[1,5-a]pyrimidine-3-carboxamide], the “Cisplatin Sensitization Assay” value is “+++ (Compounds with a Cisplatin sensitization value of <0.02 μM are marked with “+++.”)”.

As for `Cc1cccnc1-c1ccncc1NC(=O)c1c(N)nn2cc(F)cnc12` [I-C-36, 2-amino-6-fluoro-N-(3-methyl-[2,4′-bipyridin]-3′-yl)pyrazolo[1,5-a]pyrimidine-3-carboxamide], the “Cisplatin Sensitization Assay” value is “+++ (Compounds with a Cisplatin sensitization value of <0.02 μM are marked with “+++.”)”.

As for `Nc1nn2cc(F)cnc2c1C(=O)Nc1cncc(F)c1N1CCC(C(=O)N2CCN(C3COC3)CC2)CC1` [I-G-32, 2-amino-6-fluoro-N-[5-fluoro-4-[4-[4-(oxetan-3-yl)piperazine-1-carbonyl]-1-piperidyl]-3-pyridyl]pyrazolo[1,5-a]pyrimidine-3-carboxamide], the “Cisplatin Sensitization Assay” value was “+++ (Compounds with a Cisplatin sensitization value of <0.02 μM are marked with “+++.”)”.

For `N#CCc1cnc2c(C(=O)Nc3cnccc3-c3ccccc3)c(N)nn2c1` [I-C-6, 2-amino-6-(cyanomethyl)-N-(4-phenylpyridin-3-yl)pyrazolo[1,5-a]pyrimidine-3-carboxamide], the “Cisplatin Sensitization Assay” value is “+++ (Compounds with a Cisplatin sensitization value of <0.02 μM are marked with “+++.”)”.

Turning to `CS(=O)(=O)C1CN(C(=O)C2CCN(c3c(F)cncc3NC(=O)c3c(N)nn4cc(F)cnc34)CC2)C1` [I-G-86, 2-amino-6-fluoro-N-(5-fluoro-4-(4-(3-(methylsulfonyl)azetidine-1-carbonyl)piperidin-1-yl)pyridin-3-yl)pyrazolo[1,5-a]pyrimidine-3-carboxamide], the “Cisplatin Sensitization Assay” value is “+++ (Compounds with a Cisplatin sensitization value of <0.02 μM are marked with “+++.”)”.

For `Nc1nn2cc(F)cnc2c1C(=O)Nc1cnccc1-c1ccc(C(=O)N2CCN(C3COC3)CC2)nc1` [I-C-52, 2-amino-6-fluoro-N-(6-(4-(oxetan-3-yl)piperazine-1-carbonyl)-[3,4′-bipyridin]-3′-yl)pyrazolo[1,5-a]pyrimidine-3-carboxamide], the “Cisplatin Sensitization Assay” value is recorded as “++ (Compounds with a Cisplatin sensitization value >0.02 μM but <0.2 μM are marked with “++.”)”.

With `Nc1nn2cc(F)cnc2c1C(=O)Nc1cnccc1N1CCC(C(=O)N2CC3(COC3)C2)CC1` [I-G-88, N-(4-(4-(2-oxa-6-azaspiro[3.3]heptane-6-carbonyl)piperidin-1-yl)pyridin-3-yl)-2-amino-6-fluoropyrazolo[1,5-a]pyrimidine-3-carboxamide], the “Cisplatin Sensitization Assay” value is “+++ (Compounds with a Cisplatin sensitization value of <0.02 μM are marked with “+++.”)”.

`CN1CCCN(c2ccncc2NC(=O)c2c(N)nn3cc(Cl)cnc23)CC1` [I-N-43, 2-amino-6-chloro-N-(4-(4-methyl-1,4-diazepan-1-yl)pyridin-3-yl)pyrazolo[1,5-a]pyrimidine-3-carboxamide]: the “Cisplatin Sensitization Assay” value is on record as “++ (Compounds with a Cisplatin sensitization value >0.02 μM but <0.2 μM are marked with “++.”)”.

For `Nc1nn2cc(F)cnc2c1C(=O)Nc1cncc2c1CCNC2` [I-C-7, 2-amino-6-fluoro-N-(5,6,7,8-tetrahydro-2,7-naphthyridin-4-yl)pyrazolo[1,5-a]pyrimidine-3-carboxamide], the “Cisplatin Sensitization Assay” value is “++ (Compounds with a Cisplatin sensitization value >0.02 μM but <0.2 μM are marked with “++.”)”.

On to `C[N+]1([O-])CCc2c(cncc2NC(=O)c2c(N)nn3cc(F)cnc23)C1` (stereo not drawn) [I-C-9, 5-(2-amino-6-fluoropyrazolo[1,5-a]pyrimidine-3-carboxamido)-2-methyl-1,2,3,4-tetrahydro-2,7-naphthyridine 2-oxide], for which the “Cisplatin Sensitization Assay” value was “+ (Compounds with a Cisplatin sensitization value >0.2 μM but <5 μM are marked with “+.”)”.

With `CO[C@H]1CCN(C(=O)C2CCN(c3c(F)cncc3NC(=O)c3c(N)nn4cc(F)cnc34)CC2)C1` [I-G-99, (S)-2-amino-6-fluoro-N-(5-fluoro-4-(4-(3-methoxypyrrolidine-1-carbonyl)piperidin-1-yl)pyridin-3-yl)pyrazolo[1,5-a]pyrimidine-3-carboxamide], the “Cisplatin Sensitization Assay” value is on record as “+++ (Compounds with a Cisplatin sensitization value of <0.02 μM are marked with “+++.”)”.

In the case of `N#CC1(C(=O)N2CCC(c3ccncc3NC(=O)c3c(N)nn4cc(F)cnc34)CC2)CC1` [I-C-71, 2-amino-N-(4-(1-(1-cyanocyclopropanecarbonyl)piperidin-4-yl)pyridin-3-yl)-6-fluoropyrazolo[1,5-a]pyrimidine-3-carboxamide], the “Cisplatin Sensitization Assay” value was “+++ (Compounds with a Cisplatin sensitization value of <0.02 μM are marked with “+++.”)”.

For `Nc1nn2cc(F)cnc2c1C(=O)Nc1cnccc1N1CCN(S(=O)(=O)C2COC2)CC1` [I-N-195, 2-amino-6-fluoro-N-(4-(4-(oxetan-3-ylsulfonyl)piperazin-1-yl)pyridin-3-yl)pyrazolo[1,5-a]pyrimidine-3-carboxamide], the “Cisplatin Sensitization Assay” value was “+++ (Compounds with a Cisplatin sensitization value of <0.02 μM are marked with “+++.”)”.

As for `CNC1CN(C(=O)C2CCN(c3c(F)cncc3NC(=O)c3c(N)nn4cc(F)cnc34)CC2)C1` [I-G-34, 2-amino-6-fluoro-N-(5-fluoro-4-(4-(3-(methylamino)azetidine-1-carbonyl)piperidin-1-yl)pyridin-3-yl)pyrazolo[1,5-a]pyrimidine-3-carboxamide], the “Cisplatin Sensitization Assay” value was “+++ (Compounds with a Cisplatin sensitization value of <0.02 μM are marked with “+++.”)”.

Regarding `CN1CCN(c2c(F)cncc2NC(=O)c2c(N)nn3cc(F)cnc23)CC1=O` [I-N-212, 2-amino-6-fluoro-N-(5-fluoro-4-(4-methyl-3-oxopiperazin-1-yl)pyridin-3-yl)pyrazolo[1,5-a]pyrimidine-3-carboxamide], the “Cisplatin Sensitization Assay” value is listed as “+++ (Compounds with a Cisplatin sensitization value of <0.02 μM are marked with “+++.”)”.

`CN1CCN(C(=O)[C@H]2CC[C@@H](Oc3ccncc3NC(=O)c3c(N)nn4cc(F)cnc34)CC2)CC1` [I-O-19, 2-amino-6-fluoro-N-(4-(((1s,4s)-4-(4-methylpiperazine-1-carbonyl)cyclohexyl)oxy)pyridin-3-yl)pyrazolo[1,5-a]pyrimidine-3-carboxamide]: the “Cisplatin Sensitization Assay” value was “+++ (Compounds with a Cisplatin sensitization value of <0.02 μM are marked with “+++.”)”.

With `CC(=O)N1CCN(c2c(F)cncc2NC(=O)c2c(N)nn3cc(F)cnc23)CC1` [I-N-275, N-(4-(4-acetylpiperazin-1-yl)-5-fluoropyridin-3-yl)-2-amino-6-fluoropyrazolo[1,5-a]pyrimidine-3-carboxamide], the “Cisplatin Sensitization Assay” value is on record as “+++ (Compounds with a Cisplatin sensitization value of <0.02 μM are marked with “+++.”)”.

Consider `CN1CCN(C(=O)c2cnc(-c3ccncc3NC(=O)c3c(N)nn4cc(F)cnc34)c(Cl)c2)CC1` [I-C-46, 2-amino-N-(3-chloro-5-(4-methylpiperazine-1-carbonyl)-[2,4′-bipyridin]-3′-yl)-6-fluoropyrazolo[1,5-a]pyrimidine-3-carboxamide], for which the “Cisplatin Sensitization Assay” value is recorded as “+ (Compounds with a Cisplatin sensitization value >0.2 μM but <5 μM are marked with “+.”)”.
